# Tested on: HIV
# Experiment: Anti-HIV activity evaluation (HIV type not specified)
# Type: cell-based
# Details: both CCR-tropic isolates and CXCR4-tropic isolates; concentration of 15.2 μM
# Protocol: In an embodiment, TZM-bl cells (AIDS Research and Reference Reagent Program, National Institutes of Health, USA) were cultured in complete growth medium that consists of Dulbecco's minimal essential medium (DMEM) supplemented with 10% fetal bovine serum (FBS), 100 U/ml of penicillin-streptomycin (Gibco/Invitrogen, USA), 1 mM of sodium pyruvate (Gibco/Invitrogen, USA), 2 mM of L-glutamine (Gibco/Invitrogen, USA) and 1 mM of non-essential amino acids (Gibco/Invitrogen, USA).
# In an embodiment, the primary isolates 93AOHDC249, 93AOHDC250, 01PTHDECJN and 03PTHCC9, used in this study were previously isolated, titrated and characterized for co-receptor usage. HIV reference strain SG3.1 was obtained by transfection of HEK293T cells with pSG3.1 (HIV-1) plasmid using Fugene 6 reagent (Roche, Switzerland) according to manufacturer's instructions.
# In an embodiment, the 50% tissue culture infectious dose (TCID50) of the virus was determined in a single-round viral infectivity assay using a luciferase reporter gene assay in TZM-bl cells and calculated using the statistical method of Reed and Muench^27.
# In an embodiment, the antiviral activity of the compounds was determined in a single-round assay with TZM-bl cells as previously described ^26. […] After 48 h of infection, luciferase expression was quantified with the One-Glow luciferase assay substrate reagent (Promega, USA) according to manufacturer's instructions. […] After an incubation of 3 minutes at room temperature to allow complete cell lysis luminescence was measured in Tecan Infinite M200. Background luminescence was measured by using control wells that contained only target cells and GM. […]
# In an embodiment, dose-response curves were estimated from the percentage of inhibition of infection (y-axis) against logo of concentration of each compound (x-axis) using the sigmoidal dose-response equation (variable slope) in GraphPad Prism version 5.00 for Windows (GraphPad Software, San Diego Calif. USA, www.graphpad.com). IC50 and IC90 values were determined from this curve. […]
smiles,measurement,value
CC1(C)S[C@H]2N(C(=O)[C@]23CC=C(C(=O)OCc2ccccc2)[C@@H]3C(=O)c2ccccc2)[C@H]1C(=O)OC(c1ccccc1)c1ccccc1 [BSS-730A],inhibition of the replication,about 100%
